# Measured values as given in patent US20250099472A1, “RUXOLITINIB FOR THE TREATMENT OF PRURIGO NODULARIS” (INCYTE CORPORATION, priority 2021, published 2025).
# B1: nemolizumab: an IL-31 inhibitor; anti-IL-31 antibody (antibody, chains of the INN, looked up)
# heavy: QVQLVQSGAEVKKPGASVKVSCKASGYTFTGYIMNWVRQAPGQGLEWMGLINPYNGGTDYNPQFQDRVTITADKSTSTAYMELSSLRSEDTAVYYCARDGYDDGPYTLETWGQGTLVTVSSASTKGPSVFPLAPSSKSTSGGTAALGCLVKDYFPEPVTVSWNSGALTSGVHTFPAVLQSSGLYSLSSVVTVPSSNFGTQTYTCNVDHKPSNTKVDKTVERKSCVECPPCPAPPVAGPSVFLFPPKPKDTLMISRTPEVTCVVVDVSQEDPEVQFNWYVDGVEVHNAKTKPREEQFNSTFRVVSVLTVVHQDWLNGKEYKCKVSNKGLPAPIEKTISKTKGQPREPQVYTLPPSQEEMTKNQVSLTCLVKGFYPSDIAVEWESNGQPENNYKTTPPMLDSDGSFFLYSKLTVDKSRWQEGNVFSCSVMHEALHNHYTQKSLSLSP
# light: DIQMTQSPSSLSASVGDRVTITCQASEDIYSFVAWYQQKPGKAPKLLIYNAQTEAQGVPSRFSGSGSGTDFTLTISSLQPEDFATYYCQHHYDSPLTFGGGTKVEIKRTVAAPSVFIFPPSDEQLKSGTASVVCLLNNFYPREAKVQWKVDNALQSGNSQESVTEQDSKDSTYSLSSTLTLSKADYEKHKVYACEVTHQGLSSPVTKSFNRGEC
# Columns and labels:
# [1] = tested on: skin biopsies from active disease, untreated, prurigo nodularis patients; experiment: Ruxolitinib-mediated pharmacological inhibition of PN pathophysiology: proteins secreted by cultured PN skin explants, Procarta Multiplex Immunoassay; format: cell-based, human; settings: for percent inhibition of IFN-gamma / percent inhibition of IL-2 / percent inhibition of IL-8 (CXCL8) / percent inhibition of IL-10 / percent inhibition of IL-17 alpha (CTLA-8) / percent inhibition of IP-10 (CXCL10): culture supernatant vs DMSO
# Method: Full-thickness cutaneous skin biopsies were obtained from active disease, untreated, prurigo nodularis patients. Single 4 mm-punch biopsies were obtained from the same lesion for each patient and longitudinally divided into two pieces (see FIG. 1). FIG. 1 depicts a representation of skin punch biopsies used for the JAK1/JAK2 mediated pharmacological inhibition of PN pathophysiology. Biopsies were cultured for 8 days in KBM media+CaCl2 and refreshed every 2-3 days. Ruxolitinib phosphate or DMSO (control) was added to the cell culture media. Conditioned supernatants collected during/prior to media refresh were stored at −80° C. for subsequent analysis. On day 8, cultures were terminated and tissue RNA isolated for subsequent analysis.
# Collected supernatants were analyzed to quantify chemokines, cytokines, and growth factors secreted by skin explants in culture and which are involved in inflammation. A total of 51 proteins were detected and quantified in culture supernatants by Procarta Multiplex Immunoassay (Thermo Fisher, Waltham, MA). Supernatants and standards were incubated at 4° C. overnight. Assay plates were read on a Luminex 200 Instrument (Luminex Corporation, Austin, TX). The concentration was extrapolated from the antigen standard curve of each analyte. The percent inhibition determined for each analyte as the difference in protein concentration in cultures with DMSO (CD) versus those with ruxolitinib (CJ), (CD−CJ)/CD (see FIG. 2).
# [2] = Solubility of ruxolitinib free base or 1:1 phosphate salt in potential solvents (HPLC); format: physicochemical; settings: room temperature, 24 hours
# Method: First, in order to determine the solubility of ruxolitinib (free base) or its 1:1 phosphate salt, approximately 5 mL of a potential solvent was added to approximately 50 mg of the API or its salt at room temperature. The mixtures were suspended and rotated on a wheel. If the mixtures became clear solutions, more solid material was added. The suspensions were then suspended over 24 hours. The samples were filtered through 0.2 micron filters. The liquid portions were collected and diluted with 50/50 water methanol/water. The concentrations of the diluted samples were analyzed by HPLC. When the free base or salt was fairly insoluble, the results are approximate only.
# PN patients = settings: inhibition of IL-31; cited from earlier work
# PN skin = PN skin cultured with nemolizumab; cited from earlier work
molecule,measurement,setting,value
N#CC[C@H](C1CCCC1)n1cc(-c2ncnc3[nH]ccc23)cn1 [ruxolitinib],percent inhibition of IFN-gamma,[1]; 48 hr,5.0%
same,percent inhibition of IL-2,[1]; 48 hr,17.8%
same,percent inhibition of IL-8 (CXCL8),[1]; 48 hr,13.7%
same,percent inhibition of IL-10,[1]; 48 hr,36.2%
same,percent inhibition of IL-17 alpha (CTLA-8),[1]; 48 hr,63.9%
same,percent inhibition of IP-10 (CXCL10),[1]; 48 hr,9.7%
same,percent inhibition of IFN-gamma,[1]; 96 hr,11.6%
same,percent inhibition of IL-2,[1]; 96 hr,16.6%
same,percent inhibition of IL-8 (CXCL8),[1]; 96 hr,** (no measureable inhibition)
same,percent inhibition of IL-10,[1]; 96 hr,39.9%
same,percent inhibition of IL-17 alpha (CTLA-8),[1]; 96 hr,57.6%
same,percent inhibition of IP-10 (CXCL10),[1]; 96 hr,60.3%
same,Solubility,"[2]; C12-15 alcohol benzoate, approximate, listed as Free Base",150 µg/mL
same,Solubility,"[2]; Caprylic triglyceride, approximate, listed as Free Base",150 µg/mL
same,Solubility,"[2]; Dimethicone, approximate, listed as Free Base",150 µg/mL
same,Solubility,"[2]; Isopropanol, listed as Free Base",450 µg/mL
same,Solubility,"[2]; Isopropyl myristate, approximate",80 µg/mL
same,Solubility,"[2]; Isosorbide dimethyl ether, listed as Free Base",300 µg/mL
same,Solubility,"[2]; Mineral oil, approximate",80 µg/mL
same,Solubility,"[2]; Olelyl alcohol, approximate, listed as Free Base",80 µg/mL
same,Solubility,"[2]; Propylene glycol, listed as Free Base",18200 µg/mL
same,Solubility,[2]; Water/glycerin/trolamine (40/40/20),13600 µg/mL
"Cc1n[nH]c(C)c1-c1cnn(C2(CC#N)CN(c3cc(F)c(C(=O)N[C@@H](C)C(F)(F)F)cc3F)C2)c1 [4-[3-(cyanomethyl)-3-(3′,5′-dimethyl-1H,1′H-4,4′-bipyrazol-1-yl)azetidin-1-yl]-2,5-difluoro-N-[(1S)-2,2,2-trifluoro-1-methylethyl]benzamide]",percent inhibition of IL-5,"[1]; 48 hours, same assays",20.25%
same,percent inhibition of IL-22,"[1]; 48 hours, same assays",11.16%
B1,pruritus and skin lesions in PN patients,PN patients,improvement in pruritus and skin lesions
same,IL-17 levels in lesional skin,PN skin,reduction in IL-17 levels
